The source of these data is patent US8829185B2 (Bayer HealthCare LLC, priority 2005, dated 2014).

Assay [1] deals with HCT116 cells. Nature of the assay: Tumor cell proliferation (Alamar Blue), HCT116. The assay is classed as cell-based. Conditions: Homo sapiens, HCT-116, 72 h, HCT116, 72 h. As to the method: (§1) Human tumor cells (e.g., HCT116 or MDA-MB-231 cells), were seeded in a Costar 96-well plate at 3.0×10^3 cells/well and grown in 150 μl of RPMI complete media (Invitrogen Corporation, Grand Island, N.Y.) containing 10% fetal bovine serum (Hyclone, Logan, Utah) at 37° C. for 16 h in an incubator with 5% CO2. To each well, 50 μl of additional growth media containing 40 μM to 18 nM concentrations of compound with 0.4% DMSO was added. Cells were grown for another 72 h at 37° C. with 5% CO2. 20 μl of Alamar Blue (Trek Diagnostic Systems, Inc., Cleveland, Ohio) reagent was added to each well and incubated for 3 h at 37° C. Plates were read in a SpectraMax Gemini (Molecular Devices, CA) with 544 nm excitation and 590 nm emission wavelength. IC50 values were determined by linear regression analysis of log drug concentration versus percent inhibition.
In general terms: Alamar Blue is a resazurin reagent that responds to reducing activity.

Assay [2] concerns the target T1, FGFR1-GST (Homo sapiens, UniProt P11362).
T1 construct: GST; made in house
Nature of the assay: FGFR-1 TR-FRET biochemical assay. To be noted: bounds given in nM. The method, boiled down: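 LANCE TR-FRET with 5 nM FGFR1-GST, 0.6 uM ATP, 25 nM biotin-poly GT in HEPES pH 7.5/MgCl2, 1% DMSO; compound added before enzyme, 1 h at room temperature. 665/615 nm ratio, background without ATP; % inhibition over 10 μM–0.128 nM final for IC50.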
Background: Time-resolved FRET reads energy transfer from a long-lived donor to a nearby acceptor.

For assay [3], the system named is histone 3 phosphorylation in colon carcinoma (HCT116). As to the kind of experiment: p-Histone3 assay. The assay is classed as cell-based. Conditions: Homo sapiens, HCT-116, 24 h, HCT116, 24 hours treatment. As for the experimental part:
Compounds were assayed for the inhibition of histone 3 phosphorylation in colon carcinoma (HCT116). Briefly, 20,000 cells/well were seeded in a 96-well black-walled, poly-d-lysine plates in RPMI+10% FBS and incubated at 37° C. in 5% CO2 overnight. The following day, the cells were treated with compounds for 24 hours at 37° C. Following compound treatment; plates were centrifuged at 1000 rpm for 2 minutes and washed twice with 100 μl of cold sterile TBS. Cells were then fixed with cold 3.7% formaldehyde in TBS (4° C. for 1 hour) and then permeabalized with 0.1% Triton-X-100 in TBS (room temperature for 30 minutes). Plates were then washed with of 0.25% BSA-TBS and blocked with BSA solution for 1 hour at room temperature while shaking. The supernatant was removed and replaced with diluted primary antibody (anti-phospho-histone 3, serine 10, Cell Signaling) at 1:250 in 0.25% BSA-TBS and incubated overnight at 4° C. The plates were washed and treated with diluted secondary antibody (anti-rabbit Eu-labeled) at 1:10000 in 0.25% BSA-TBS (room temperature for 1 hour). The antibody solution was removed from each well and washed eight times. The wash buffer was replaced with 50 μl pre-warmed enhancement solution and mixed on the orbital shaker for 10 minutes. Fluorescence was detected with a Victor V Fluorescence Detector. The data are expressed as percent inhibition: % inhibition=100−((Signal with inhibitor-background)/(Signal without inhibitor-background))×100.

Assay [4] relates to MDA-MB-231 cells. As to the kind of experiment: Tumor cell proliferation (Alamar Blue), MDA-MB-231. The assay is classed as cell-based. To be noted: Homo sapiens, MDA-MB-231, 72 h. As to the method: as §1

Structures are written as SMILES. Some results are limits rather than exact numbers.

T1 sequence (P11362 22-822): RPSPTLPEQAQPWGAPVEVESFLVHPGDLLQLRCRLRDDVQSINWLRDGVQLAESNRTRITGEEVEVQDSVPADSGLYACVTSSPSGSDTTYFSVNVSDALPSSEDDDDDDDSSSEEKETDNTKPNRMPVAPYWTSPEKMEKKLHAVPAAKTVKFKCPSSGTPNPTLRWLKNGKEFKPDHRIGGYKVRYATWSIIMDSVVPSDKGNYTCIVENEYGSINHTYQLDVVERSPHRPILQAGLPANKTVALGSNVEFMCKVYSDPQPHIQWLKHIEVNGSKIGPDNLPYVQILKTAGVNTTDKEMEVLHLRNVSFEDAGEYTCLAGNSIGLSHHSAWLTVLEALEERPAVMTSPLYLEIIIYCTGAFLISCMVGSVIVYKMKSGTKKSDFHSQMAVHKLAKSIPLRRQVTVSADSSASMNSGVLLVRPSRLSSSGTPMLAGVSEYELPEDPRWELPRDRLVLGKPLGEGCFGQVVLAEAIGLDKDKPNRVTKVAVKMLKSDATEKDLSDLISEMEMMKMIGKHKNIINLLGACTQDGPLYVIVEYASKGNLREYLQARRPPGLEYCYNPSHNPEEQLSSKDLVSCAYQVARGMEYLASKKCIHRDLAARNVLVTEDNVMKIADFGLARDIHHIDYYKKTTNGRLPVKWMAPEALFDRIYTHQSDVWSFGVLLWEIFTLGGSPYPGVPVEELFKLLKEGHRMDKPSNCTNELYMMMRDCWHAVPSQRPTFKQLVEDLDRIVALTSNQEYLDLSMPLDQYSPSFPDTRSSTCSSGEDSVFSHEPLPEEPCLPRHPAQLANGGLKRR

A word on the IC50: it is the midpoint of a concentration-inhibition curve. Take `N#Cc1c(C(=O)NCC(F)(F)F)c(-c2ccc(NC(=O)Nc3cc(C(F)(F)F)ccn3)cc2)c2c(N)ncnn12` [Example 7, 4-amino-7-cyano-N-(2,2,2-trifluoroethyl)-5-{4-[({[4-(trifluoromethyl)pyridin-2-yl]amino}carbonyl)-amino]phenyl}pyrrolo[2,1-f][1,2,4]triazine-6-carboxamide]: the IC50 is more than 500 nM in assay [1] (lower bound in nM); less than 4000 nM in assay [1] (upper bound given in μM); 10 to 100 nM in assay [2]; less than 5 µM in assay [3] (bounds given in μM); more than 0.5 µM in assay [3] (lower bound in nM); more than 500 nM in assay [4] (lower bound in nM). This compound also displayed an IC50 in assay [4] (upper bound given in μM) of less than 5000 nM.
As for `COCc1c(-c2ccc(NC(=O)Nc3cc(C(F)(F)F)ccc3F)cc2)c2c(N)ncnn2c1CN1CCOCC1` [Example 12, N-{4-[4-amino-6-(methoxymethyl)-7-(morpholin-4-ylmethyl)pyrrolo[2,1-f][1,2,4]triazin-5-yl]phenyl}-N′-[2-fluoro-5-(trifluoromethyl)phenyl]urea], the IC50 was more than 500 nM in assay [1] (lower bound in nM); less than 4000 nM in assay [1] (upper bound given in μM); less than 10 nM in assay [2]; 5 to 10 µM in assay [3] (bounds given in μM); more than 500 nM in assay [4] (lower bound in nM); less than 5000 nM in assay [4] (upper bound given in μM).
On to `COCc1c(-c2ccc(NC(=O)Nc3cc(C(F)(F)F)ccc3F)cc2)c2c(N)ncnn2c1CN1CCN(C)CC1` [Example 13, N-(4-{4-amino-6-(methoxymethyl)-7-[(4-methylpiperazin-1-yl)methyl]pyrrolo[2,1-f][1,2,4]triazin-5-yl}phenyl)-N′-[2-fluoro-5-(trifluoro-methyl)phenyl]urea], for which the IC50 in assay [1] (lower bound in nM) was more than 500 nM; in assay [1] (upper bound given in μM), less than 4000 nM; in assay [2] it was 10 to 100 nM; in assay [3] (bounds given in μM), less than 5 µM; in assay [3] (lower bound in nM), more than 0.5 µM; in assay [4] (lower bound in nM) it was more than 500 nM. The same compound registered an IC50 in assay [4] (upper bound given in μM) of less than 5000 nM.
For the compound `COCc1c(-c2ccc(NC(=O)Nc3cc(C(F)(F)F)ccc3F)cc2)c2c(N)ncnn2c1CO` [Example 23, N-{4-[4-amino-7-(hydroxymethyl)-6-(methoxymethyl)-pyrrolo[2,1-f][1,2,4]triazin-5-yl]phenyl}-N′-[2-fluoro-5-(trifluoromethyl)-phenyl]urea], the IC50 was more than 500 nM in assay [1] (lower bound in nM); less than 4000 nM in assay [1] (upper bound given in μM); 10 to 100 nM in assay [2]; more than 500 nM in assay [4] (lower bound in nM); less than 5000 nM in assay [4] (upper bound given in μM).
In the case of `COCc1c(-c2ccc(NC(=O)Nc3cc(C(F)(F)F)ccc3F)cc2)c2c(N)ncnn2c1C(C)O` (stereo not shown) [Example 25, N-{4-[4-amino-7-(1-hydroxyethyl)-6-(methoxymethyl)pyrrolo[2,1-f][1,2,4]triazin-5-yl]phenyl}-N′-[2-fluoro-5-(trifluoromethyl)phenyl]urea], the IC50 was more than 500 nM in assay [1] (lower bound in nM) and less than 4000 nM in assay [1] (upper bound given in μM).
On to `Nc1ncnn2c(CN3CCOCC3)c(-c3cnco3)c(-c3ccc(NC(=O)Nc4cc(C(F)(F)F)ccn4)c(F)c3)c12` [Example 33, N-4-[4-amino-7-(morpholin-4-ylmethyl)-6-(1,3-oxazol-5-yl)pyrrolo[2,1-f][1,2,4]triazin-5-yl]-2-fluorophenyl-N′-[4-(trifluoromethyl)pyridin-2-yl]urea], for which the figures for the IC50 in assay [2] and in assay [3] (bounds given in μM) were less than 10 nM and 5 to 10 µM, respectively.
`Nc1ncnn2c(CN3CCOCC3)c(CO)c(-c3ccc(NC(=O)Nc4cc(C(F)(F)F)ccc4F)cc3)c12` [Example 34, N-4-[4-amino-6-(hydroxymethyl)-7-(morpholin-4-ylmethyl)-pyrrolo[2,1-f][1,2,4]triazin-5-yl]phenyl-N′-[2-fluoro-5-(trifluoromethyl)-phenyl]urea]: the IC50 in assay [2] is 10 to 100 nM; in assay [3] (bounds given in μM), less than 5 µM; in assay [3] (lower bound in nM) it was more than 0.5 µM.
For the compound `N#Cc1c(-c2ccc(NC(=O)Nc3cc(C(F)(F)F)ccc3F)cc2)c2c(N)ncnn2c1CN1CCOCC1` [Example 54, N-4-[4-amino-6-cyano-7-(morpholin-4-ylmethyl)pyrrolo[2,1-f][1,2,4]triazin-5-yl]phenyl-N′-[2-fluoro-5-(trifluoromethyl)phenyl]urea], the IC50 in assay [2] was less than 10 nM; in assay [3] (bounds given in μM), less than 5 µM; in assay [3] (lower bound in nM), more than 0.5 µM.
For the compound `Nc1ncnn2c(CN3CCOCC3)c(CO)c(-c3ccc(NC(=O)Nc4cc(C(F)(F)F)ccn4)cc3)c12` [Example 62, N-{4-[4-amino-6-(hydroxymethyl)-7-(morpholin-4-ylmethyl)pyrrolo[2,1-f][1,2,4]triazin-5-yl]phenyl}-N′-[4-(trifluoromethyl)-pyridin-2-yl]urea], the IC50 in assay [2] lay in the range of 10 to 100 nM; in assay [3] (bounds given in μM) it was 5 to 10 µM.
For `N#CCc1c(-c2ccc(NC(=O)Nc3cc(C(F)(F)F)ccc3F)c(F)c2)c2c(N)ncnn2c1CN1CCOCC1` [Example 69, N-{4-[4-amino-6-(cyanomethyl)-7-(morpholin-4-ylmethyl)-pyrrolo[2,1-f][1,2,4]triazin-5-yl]-2-fluorophenyl}-N′-[2-fluoro-5-(trifluoromethyl)phenyl]urea], the IC50 in assay [2] was less than 10 nM; in assay [3] (bounds given in μM), less than 5 µM; in assay [3] (lower bound in nM), more than 0.5 µM.
For `Cc1c(-c2ccc(NC(=O)Nc3cc(C(F)(F)F)ccc3F)cc2)c2c(N)ncnn2c1CN1CCOCC1` [Example 111, N-{4-[4-amino-6-methyl-7-(morpholin-4-ylmethyl)pyrrolo[2,1-f][1,2,4]triazin-5-yl]phenyl}-N′-[2-fluoro-5-(trifluoromethyl)phenyl]urea], in that order: less than 10 nM, less than 5 µM and more than 0.5 µM.
